These results are taken from patent US11235033B1, “Materials and methods for the treatment of vascular calcification” (THE FLORIDA INTERNATIONAL UNIVERSITY BOARD OF TRUSTEES, priority 2020, dated 2022).

“Also recorded” adds a separate entry of the source. Like-named read-outs stand apart in the source and are kept apart here.

The conditions of data set [1]: in vivo; cited from earlier work.
Data set [2] relates to hypertensive rats. Particulars: chronic treatment; cited from earlier work.
Data set [3] concerns THP1 cells. Conditions: cited from earlier work.
The subject of data set [4] is caveolin-1. In words: Caveolin-1 gene expression in pro-calcific SMC culture. It is filed as cell-based, human. Conditions: SMCs, pro-calcific conditions, 24 h; FIG. 14. From the text: (§1) The vasodilatory effects of RXFP1 agonism occurs through interactions within caveolae on endothelial cells. G-protein-coupled receptors (GPCRs), such as RXFP1, use caveolae scaffolding domains to regulate interactions with other proteins and activate downstream signaling. […] RXFP1 agonism may stabilize existing caveolae, leading to the observed decreased caveolin-1 turnover. RXFP1 agonist-induced stabilization of caveolae may prevent the formation of calcifying EVs.

Data set [5] in a line: Pharmacokinetics study of ML290 via oral administration in hRXFP1/hRXFP1 mice. It is filed as in vivo. Particulars: mouse, 30 mg/kg oral.
The test system of data set [6] is atherogenic Apoe−/− mice. In words: Calcification (OsteoSense fluorescence) in atherogenic Apoe-/- mice. It is filed as in vivo, mouse. Conditions: oral gavage 30 mg/kg; for OsteoSense fluorescence (mineral) vs vehicle treated controls: after 25 weeks of atherogenic diet. From the text: A chow control is shown for comparison (first aorta). C) Quantification of mice treated with ML290 at the initiation of the atherogenic diet. […] D) Quantification of OsteoSense signal in mice treated at 15 weeks of atherogenic diet, indicating potential of treatment to reverse existing remodeling. #p<0.0001.
Relaxin Family Peptide Receptor 1 (RXFP1) agonism induces vasodilation through a mechanism that may involve interactions with endothelial nitric oxide synthase within caveolae. The relaxin peptide, activating RXFP1, has therapeutic potential in treating fibrosis and vasculopathies.

Data set [7] has as its system PPARGC1A. In words: PPARGC1A gene expression in SMCs cultured in pro-calcific media. It is filed as cell-based, human. Conditions: FIG. 15. From the text:
The modulation of a different GPCR, the serotonin 2B receptor, alters intracellular trafficking to prevent calcification by aortic valve cells. Both 5-HT2B and RXFP1 can modulate vascular tone through interactions with nitric oxide synthase—a known caveolin-1 interactor. RXFP1 may, however, affect caveolin-1 protein stability directly. Peroxisome Proliferator-Activated Receptor γ (PPARγ) activation promotes lysosomal degradation of caveolin-1 in pulmonary artery SMCs. […] Therefore, thus result indicates the potential mechanism for the observed anti-calcific effects of ML290.

The target of data set [8] is T1, RXFP1 (Homo sapiens, UniProt Q9HBX9).
T1 sequence (Q9HBX9 1-757): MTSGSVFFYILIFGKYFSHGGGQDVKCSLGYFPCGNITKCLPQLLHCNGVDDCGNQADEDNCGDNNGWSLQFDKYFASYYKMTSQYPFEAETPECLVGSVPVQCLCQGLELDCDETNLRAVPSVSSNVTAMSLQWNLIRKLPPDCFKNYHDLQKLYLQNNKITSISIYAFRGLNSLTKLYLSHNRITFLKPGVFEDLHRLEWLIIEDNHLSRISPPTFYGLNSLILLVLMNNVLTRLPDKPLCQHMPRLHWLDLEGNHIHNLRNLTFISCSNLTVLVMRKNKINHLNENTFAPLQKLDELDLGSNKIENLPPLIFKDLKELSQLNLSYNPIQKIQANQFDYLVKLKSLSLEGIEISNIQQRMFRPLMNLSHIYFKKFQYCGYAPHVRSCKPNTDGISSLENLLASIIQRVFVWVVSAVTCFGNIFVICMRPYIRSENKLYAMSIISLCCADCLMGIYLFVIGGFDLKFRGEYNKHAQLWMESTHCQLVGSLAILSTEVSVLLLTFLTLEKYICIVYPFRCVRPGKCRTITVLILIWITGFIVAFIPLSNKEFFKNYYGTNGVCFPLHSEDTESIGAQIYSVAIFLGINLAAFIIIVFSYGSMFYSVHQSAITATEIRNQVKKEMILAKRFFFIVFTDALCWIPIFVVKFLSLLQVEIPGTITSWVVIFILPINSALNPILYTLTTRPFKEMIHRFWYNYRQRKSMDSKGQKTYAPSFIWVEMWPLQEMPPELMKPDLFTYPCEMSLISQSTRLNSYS
Conditions: cited from earlier work.

Data set [9] has as its system CKD mice. In words: Aortic calcification in CKD mice fed a high phosphate diet. Particulars: for calcification in treated CKD mice: CKD diet regimen, AG1478 20 mg/kg or ML290 30 mg/kg oral gavage every 2 days. It is filed as in vivo, mouse. As to the method: Eight-week old SMMHC-CreER^T2+/Cav1^fl/fl mice receive daily intraperitoneal injections of either peanut oil (vehicle control) or tamoxifen (1 mg/kg) for two weeks. Following the final injection, mice receive an adenine-enriched (0.2%) diet for 6 weeks to induce kidney dysfunction. Elevated phosphate (1.8%) is then added to the diet to induce medial calcification. Using a sensitive near-infrared calcium mineral tracer (OsteoSense 680), significant aortic calcification in mice was observed after 2 weeks of the high phosphate diet (FIG. 1). Vascular calcification continues to increase for up to 6 weeks of the high phosphate diet.
To test the therapeutic efficacy of these small molecules, e.g., ML290 or AG1478, the same CKD diet regimen is used as discussed above. A mouse model designed to test agonists for human RXFP1 is utilized.
Beginning at prescribed time points (FIG. 11), mice are treated with the EGFR inhibitor, AG1478 (20 mg/kg), or ML290 (30 mg/kg) via oral gavage every 2 days. Control mice receive vehicle gavage. The treatments begin either at the initiation of the high phosphate diet (to determine if the treatments prevent mineral formation) or after two weeks of the high phosphate diet (to determine if the treatments can reverse medial calcification).

Data set [10] deals with T1, RXFP1. Conditions: cited from earlier work. This is another data set of the same source.
In data set [11] the test system is primary human coronary artery smooth muscle cells. Nature of the data set: Calcific mineral formation by SMCs cultured in pro-calcific (osteogenic) media in vitro. It is filed as cell-based. Particulars: for SMC mineralization in vitro: AG 1478 2.5 μM, FIG. 8A. As to the method:
Pro-calcific media, optimized to induce calcification, consists of growth media supplemented with 10 nM dexamethasone, 100 μM L-ascorbic acid, and 10 mM β-glycerolphosphate. All in vitro experiments proceed for 14 days, when release of calcifying EVs from human coronary artery SMCs in pro-calcific media peaks.
[…] Changes in SMC phenotype are assayed in the culture conditions and in response to the small molecule treatments by measuring expression of osteogenic and SMC relevant genes at the time points considered. In vitro mineralization is assessed using alizarin red S staining, extraction, and colorimetric analyses after 21 days in culture.

Data set [12] concerns the target T2, rodent receptor (Mus musculus, UniProt Q6R6I7).
T2 sequence (Q6R6I7 1-758): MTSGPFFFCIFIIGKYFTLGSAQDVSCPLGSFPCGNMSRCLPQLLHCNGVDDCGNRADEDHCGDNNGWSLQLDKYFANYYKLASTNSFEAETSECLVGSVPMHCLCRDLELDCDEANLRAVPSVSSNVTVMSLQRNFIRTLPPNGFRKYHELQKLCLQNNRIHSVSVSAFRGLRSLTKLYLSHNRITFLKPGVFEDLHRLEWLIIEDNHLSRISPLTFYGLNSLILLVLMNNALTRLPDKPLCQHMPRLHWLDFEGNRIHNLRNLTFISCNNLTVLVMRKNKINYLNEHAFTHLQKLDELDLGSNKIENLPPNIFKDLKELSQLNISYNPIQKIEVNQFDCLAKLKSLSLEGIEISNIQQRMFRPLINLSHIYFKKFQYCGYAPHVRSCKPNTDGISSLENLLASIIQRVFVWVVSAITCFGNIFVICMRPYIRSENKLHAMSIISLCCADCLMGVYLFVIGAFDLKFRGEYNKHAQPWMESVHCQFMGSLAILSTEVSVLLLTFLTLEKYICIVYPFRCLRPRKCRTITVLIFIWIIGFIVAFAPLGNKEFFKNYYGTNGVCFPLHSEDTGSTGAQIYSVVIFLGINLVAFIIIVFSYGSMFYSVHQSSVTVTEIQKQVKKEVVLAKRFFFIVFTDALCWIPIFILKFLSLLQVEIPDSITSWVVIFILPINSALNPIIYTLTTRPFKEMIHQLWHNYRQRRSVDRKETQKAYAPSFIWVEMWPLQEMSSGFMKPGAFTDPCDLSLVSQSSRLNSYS
Conditions: cited from earlier work.

The nature of data set [13]: Adverse events in 25-week atherosclerotic mouse study. It is filed as in vivo. Particulars: mice, oral gavage, preliminary 25-week atherosclerotic study.
The subject of data set [14] is caveolin-1. In words: Immunofluorescence of caveolin-1 localization in SMCs in pro-calcific media. It is filed as cell-based, human. Conditions: 1 μM AG1478, SMCs in pro-calcific media; FIG. 13.
Description: as §1
(§2) To determine changes in caveolin-1 associated with the culture conditions and treatments, western blotting and immunofluorescence are used to assay caveolin-1 phosphorylation on tyrosine 14. This site is associated with changes in EGFR activity and caveolae internalization. Immunofluorescence is then used to assess the localization of caveolin-1 within the SMCs for the different culture conditions at these time points. Western blotting is used to quantify caveolin-1 in EVs relative to SMC lysates.

Data set [15] relates to caveolin-1. In words: Western blotting of caveolin-1 in SMCs and in EVs under pro-calcific conditions. It is filed as cell-based, human. Particulars: AG 1478 2.5 μM; for EV caveolin-1: EVs under pro-calcific conditions, FIG. 8D; for intracellular caveolin-1: SMCs, FIG. 8C.
Description: (§3) EVs from the in vitro samples are isolated using previously established procedures, which includes 1,000×g and 10,000×g centrifugations to remove cells and large contaminants and a 100,000×g ultracentrifugation to obtain EVs suspended in conditioned media.
as §2
For orientation: A western blot detects proteins with antibodies after separation by electrophoresis.

For data set [16], the system named is tissue non-specific alkaline phosphatase (TNAP). Nature of the data set: TNAP activity in EVs released by SMCs. It is filed as cell-based, human. Conditions: AG 1478 2.5 μM, FIG. 8B.
Description: To obtain EVs from the mouse aortae, following collagenase digestion and tissue homogenization using a Dounce homogenizer, cells and large extracellular aggregates are removed by centrifugation steps of 1,000×g and 10,000×g, respectively. EVs are isolated from the remaining supernatant by ultracentrifugation at 100,000×g. Western blotting analyses of commonly enriched EV markers determine the efficacy of the isolation procedures. The presence of caveolin-1 and activity of the pro-calcific enzyme TNAP are also assessed in the extracted EVs.
as §3

Data set [17] has as its system dynamin. Conditions: cited from earlier work.

With relaxin, in data set [1], the safety and tolerability result is “safe and well-tolerated”. Also, the arterial compliance entry in data set [2] was “improved arterial compliance”.

On to `CC(C)Oc1ccccc1C(=O)Nc1ccccc1C(=O)Nc1cccc(S(=O)(=O)C(F)(F)F)c1` [ML290], for which the VEGF gene expression entry in data set [3] is given as “increase”. For the same compound, the cAMP levels entry in data set [3] is reported as “increase”. The caveolin-1 gene expression result in data set [4] was “decreases caveolin-1 gene expression; also recorded: reduces caveolin-1 expression”. In addition, the half-life in [5] (aorta, read-out: t½ in aorta (converted)) is 8 h; in data set [5] (serum, read-out: t½ in serum (converted)), 11 h. For the same compound, the calcification in vivo result in [6] (Apoe−/− mice, FIG. 9B, 30 mg/kg) is given as “mitigates calcification; also recorded: reduces calcification in vivo”. Also, the “OsteoSense fluorescence (mineral) vs vehicle treated controls” value in data set [6] (treated after 15 weeks of atherogenic diet) and in [6] (treated at the beginning of the atherogenic diet) was “Lower OsteoSense fluorescence” each time. The PPARGC1A gene expression result in data set [7] was “increases PPARGC1A; also recorded: increased expression of PPARGC1A”. Also, the “agonism of human RXFP1” value in data set [8] is “potent and efficacious non-peptide agonist; also recorded: specific agonist for human RXFP1”. For the same compound, the “calcification in treated CKD mice” value in data set [9] is on record as “Diminished calcification”. Also, the aortic calcification entry in data set [9] (CKD mice, 30 mg/kg oral gavage from initiation of high phosphate diet, 2 weeks, FIG. 12, 30 mg/kg) is reported as “significant prevented aortic calcification; also recorded: significantly prevents aortic calcification”. In data set [10], the “selectivity towards RXFP1 over RXFP2 receptors” value is listed as above 100 fold. Moreover, in data set [11] (ML290 5 μM, FIG. 9A), the “mineral formation by vascular smooth muscle cells in vitro” value is on record as “significantly reduces mineral formation”. Also, the “anti-calcification effect on human SMCs in vitro” value in data set [11] (primary human coronary artery smooth muscle cells cultured in osteogenic stimuli) is “mitigates calcification; also recorded: profound anti-calcification effects”. Also, in [12], the “activation of rodent receptor” value was “does not activate rodent receptor”. The adverse events result in data set [13] is listed as “No adverse events”.

Turning to `COc1cc2ncnc(Nc3cccc(Cl)c3)c2cc1OC` [AG1478], the “caveolin-1 plasma membrane (peripheral) localization” value in [14] is recorded as “maintained the peripheral localization of caveolin-1; also recorded: preserves caveolin-1 (red) plasma membrane localization”. Moreover, in data set [9], the “calcification in treated CKD mice” value is “Diminished calcification”. Further, the “SMC mineralization in vitro” value in [11] is “prevents calcific mineral formation”; in data set [11] (listed as AG 1478), “prevents SMC mineralization”. The entries for the “EV caveolin-1” value in data set [15] and in [15] (listed as AG 1478) were “reduces caveolin-1 released in EVs; also recorded: decreases EV caveolin-1” and “reduces EV caveolin-1”, respectively. Further, the entries for the “intracellular caveolin-1” value in [15] and in data set [15] (listed as AG 1478) were “does not change intracellular caveolin-1; also recorded: without affecting intracellular caveolin-1 levels” and “does not affect intracellular caveolin-1”, respectively. Also, the “EV TNAP activity” value in data set [16] is on record as “reduces activity”; in [16] (listed as AG 1478), “reduces EV TNAP activity”. Besides, the dynamin activity entry in [17] is reported as “reduces dynamin activity”.
